# According to article PMC7251097, “Aspartate/asparagine-β-hydroxylase: a high-throughput mass spectrometric assay for discovery of small molecule inhibitors” (Scientific Reports, 2020):
# Structures can show the parent of a compound that is named as a salt. Where two headings read alike, the source gives them in different places. Starred links: 1 amine or outer side, 2 acyl side, 3 side chain; linkers in the order of their positions; H or OH if unused. Non-standard residues stand in square brackets, D forms with d. Residues, ends and D or L forms follow the SMILES beside them. X1 = NCCCC[C@H](N)CN([C@@H](CCCCN)C(=O)[*:2])[*:1]; Tle = CC(C)(C)[C@H](N)C(=O)O
# Target: T1, His6-AspH315–758 (human aspartate/asparagine-β-hydroxylase, AspH) (Homo sapiens, UniProt Q12797)
# T1 construct: N-Terminally His6-tagged human AspH315–758 (His6-AspH315–758) was produced in E. coli BL21 (DE3) cells; made in house; host or cells: E. coli BL21 (DE3), pET-28a(+) vector
# T1 sequence (Q12797 315-758): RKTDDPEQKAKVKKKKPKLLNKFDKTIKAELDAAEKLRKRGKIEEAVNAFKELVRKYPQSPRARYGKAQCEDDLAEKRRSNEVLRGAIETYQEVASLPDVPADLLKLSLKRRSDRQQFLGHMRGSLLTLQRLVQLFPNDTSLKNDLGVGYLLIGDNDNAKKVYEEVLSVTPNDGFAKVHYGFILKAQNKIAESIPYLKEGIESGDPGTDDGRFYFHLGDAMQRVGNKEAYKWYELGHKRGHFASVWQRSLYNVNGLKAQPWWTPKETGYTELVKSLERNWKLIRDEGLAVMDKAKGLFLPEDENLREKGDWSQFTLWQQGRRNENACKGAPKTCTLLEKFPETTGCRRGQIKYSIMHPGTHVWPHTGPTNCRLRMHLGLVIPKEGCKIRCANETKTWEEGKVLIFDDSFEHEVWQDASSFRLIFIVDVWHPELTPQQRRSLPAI
# Assay: SPE-MS AspH inhibition assay (LOPAC screen at fixed 20 μM and IC50 dose-response), hydroxylation of cyclic peptide hFX-CP101–119
# Format: biochemical
# Conditions: for Plate 5 (% inhibition) / Plate 5 (% conversion): plate 5 (Pfitzer), test compounds at fixed 20 μM; for Plate 5 (% conversion): mean conversion DMSO 32.88
# [1] = LOPAC compound at 20uM, plate 3, conversion of substrate peptide
# [2] = LOPAC Plate 4, compound at 20 uM, substrate conversion
# [3] = LOPAC Plate 4, compound at 20 uM
# [4] = LOPAC Plate 4, compound at 20 uM, read-out: % inhibition
# [5] = LOPAC compound at fixed 20 uM, plate 1, normalised to DMSO and 2,4-PDCA controls
# [6] = LOPAC compound at fixed 20 uM, substrate conversion, plate 1
% conversion [2],Plate 5 (% inhibition),Plate 5 (% conversion),Structure (SMILES),also measured
3.66%,–,–,"C=CCc1cccc(/C=N/NC(=O)CN2CCN(Cc3ccccc3)CC2)c1O [PAC-1, reference compound]","IC50 (50 nM His6-AspH315–758, 1.0 μM hFX-CP101–119, 3 μM 2OG, 2 μM Fe(II), 50 mM HEPES pH 7.5, 20 °C, mean ± SD, n = 2 (2,4-PDCA n = 10), read-out: IC50): 3.53 ± 0.71 µM; Inhibition at 20 µM [%] (AspH activity, fixed compound concentration 20 μM, initial LOPAC screen, 0.5%v/v DMSO): 96.1%"
39.27%,58.03%,16.57%,Cn1c(=O)c(-c2c(Cl)cccc2Cl)cc2cnc(Nc3ccc(N4CCOCC4)cc3)nc21 [PD173952],% inhibition [3]: -8.20%
–,28.96%,26.46%,O=C(NOCC1CC1)c1ccc(F)c(F)c1Nc1ccc(I)cc1Cl [PD184352],–
–,-16.72%,42.01%,CCOC(=O)[C@H](CC(C)C)NC(=O)[C@@H](NC(=O)[C@H](Cc1c[nH]c2ccccc12)NC(=O)[C@@H]1CCCN1C(=O)[C@H](CCCCN)NC[C@@H](N)CCCCN)C(C)(C)C [PD-149163] (H-[X1]PW[Tle]L-OEt),–
36.15%,18.88%,29.89%,COc1ccc(C2(O)OC(=O)C(c3ccc4c(c3)OCO4)=C2Cc2cc(OC)c(OC)c(OC)c2)cc1 (stereo not shown) [PD-156707],inhibition at 20 µM [4]: 0.95%
–,-29.14%,46.23%,CCN(CC)CCCCNc1ncc2cc(-c3c(Cl)cccc3Cl)c(NC(=O)NC(C)(C)C)nc2n1 [PD-161570],Plate 3 (% conversion) [1]: 41.21%
–,16.45%,30.72%,Cc1c([N+](=O)[O-])cc2[nH]c(=O)c(=O)[nH]c2c1CN1CCCC1 [PD-161989],–
36.54%,-5.94%,38.34%,COc1cc(OC)cc(-c2cc3cnc(N)nc3nc2NC(=O)NC(C)(C)C)c1 [PD-166866],–
–,46.58%,20.46%,Cc1cc(Nc2ncc3cc(-c4c(Cl)cccc4Cl)c(=O)n(C)c3n2)ccc1F [PD-180970],Plate 1 (% inhibition) [5]: -5.67%; Plate 1 (% conversion) [6]: 37.77%
–,35.16%,24.35%,CN(c1ccccc1CNc1nc(Nc2ccc3c(c2)CC(=O)N3)ncc1C(F)(F)F)S(C)(=O)=O [PF-431396],–
–,-92.31%,67.73%,Cn1cc(-c2[nH]c3cc(NC(=O)[C@H](N)C4CCCCC4)cc4c3c2C=NNC4=O)cn1 [PF-477736],–
–,7.79%,33.66%,CS(=O)(=O)c1cccc(CNc2nc(Nc3ccc4c(c3)CCC(=O)N4)ncc2C(F)(F)F)c1 [PF-573228],–
–,16.28%,30.77%,C[C@@H]1CCN(C(=O)N2CCCC2)C[C@@H]1N(C)c1ncnc2[nH]ccc12 [PF-956980],–
41.30%,2.08%,35.61%,CCc1cncnc1N1CCN(Cc2nc3ccc(C(F)(F)F)cc3[nH]2)CC1 [PF-4708671],–
–,12.80%,31.96%,O=C(N[C@H]1CN2CCC1CC2)c1cc2ccoc2cn1 [PHA-543613],Plate 3 (% conversion) [1]: 37.15%
–,-100.36%,70.47%,Cc1[nH]c(/C=C2\C(=O)Nc3ccc(S(=O)(=O)Cc4c(Cl)cccc4Cl)cc32)c(C)c1C(=O)N1CCC[C@@H]1CN1CCCC1 [PHA-665752],–

# The next lines start with the molecule.
Structure (SMILES),% conversion [2],Plate 5 (% inhibition),Plate 5 (% conversion),also measured
CCN(CC)CC#CCOC(=O)C(O)(c1ccccc1)C1CCCCC1 (stereo not shown) [Oxybutynin Chloride],–,–,–,Plate 3 (% conversion) [1]: 40.48%
Cc1cc(C(C)(C)C)c(O)c(C)c1CC1=NCCN1 [Oxymetazoline hydrochloride],–,–,–,Plate 3 (% conversion) [1]: 41.41%
Nc1ccc(CCN2CCN(c3cccc(C(F)(F)F)c3)CC2)cc1 [PAPP],–,–,–,% conversion: 42.06%; % inhibition (20 µM): -16.38%
"COc1cccc(-c2cc(=O)c3ccccc3o2)c1N [PD 98,059]",–,–,–,% conversion: 28.37%
"Cc1cccc(C(=O)NCN2CCN(c3ccccc3C#N)CC2)c1.O=C(O)/C=C\C(=O)O [PD 168,077 maleate]",35.88%,–,–,% inhibition [3]: 1.73%
CCN(CC)CCOc1ccc(Nc2ncc3cc(-c4c(Cl)cccc4Cl)c(=O)n(C)c3n2)cc1.O [PD-166285 hydrate],–,–,–,% conversion: 50.97%; % inhibition (20 µM): -42.48%
CCN(CC)CCOc1ccc(Nc2ncc3cc(-c4c(Cl)cccc4Cl)c(=O)n(C)c3n2)cc1 [PD-166285],–,-31.63%,47.08%,–
O=C(Nc1cccnc1)N1CCC(Cc2cccc(Oc3ccc(C(F)(F)F)cn3)c2)CC1 [PF 3845 hydrate],–,–,–,Plate 1 (% conversion): 45.36%; Plate 1 (% inhibition): -28.26%
O=C(Nc1cccnc1)N1CCC(Cc2cccc(Oc3ccc(C(F)(F)F)cn3)c2)CC1 [PF-3845],–,-5.26%,38.10%,–
CN(c1ccccc1CNc1nc(Nc2ccc3c(c2)CC(=O)N3)ncc1C(F)(F)F)S(C)(=O)=O.O [PF-431396 hydrate],–,–,–,Plate 1 (% inhibition) [5]: -15.66%; Plate 1 (% conversion) [6]: 41.13%
N#Cc1ccc([C@H]2CCCC[C@H]2O)cc1C(F)(F)F [PF-998425],–,–,24.94%,–
Cl.O=C1NCCc2[nH]c(-c3ccncc3)cc21 [PHA 767491 hydrochloride],–,–,–,Plate 1 (% inhibition) [5]: -17.71%; Plate 1 (% conversion) [6]: 41.82%
O=C1NCCc2[nH]c(-c3ccncc3)cc21 [PHA 767491],–,26.12%,27.42%,–
CCC(C)N(C)C(=O)c1cc2ccccc2c(-c2ccccc2Cl)n1 (stereo not shown) [PK 11195],–,–,–,Plate 1 (% inhibition) [5]: -10.48%; Plate 1 (% conversion) [6]: 39.39%
Nc1nc2c(ncn2CCOCP(=O)(O)O)c(=O)[nH]1 [PMEG hydrate],–,–,–,Plate 3 (% conversion) [1]: 30.37%
Cc1nc(N=Nc2ccc(S(=O)(=O)O)cc2S(=O)(=O)O)c(COP(=O)(O)O)c(C=O)c1O [PPADS],7.48%,–,–,% inhibition [3]: 84.93%
O=C(OCCN1CCOCC1)C1(c2ccccc2)CCCCC1 [PRE-084],–,–,–,Plate 3 (% conversion) [1]: 38.46%

Structure (SMILES),% conversion [2],Plate 5 (% inhibition),Plate 5 (% conversion),also measured
CC(=O)c1cccc(N[C@H]2[C@H](N)[C@@](NC(=O)N(C)C)([C@H](C)O)[C@@](C)(O)[C@@]2(O)COC(=O)c2c(C)cccc2O)c1 [Pactamycin],–,21.27%,29.07%,–
CC(=O)O[C@H]1C[C@@H]2CC[C@@H]3[C@H](CC[C@@]4(C)[C@H]3C[C@H]([N+]3(C)CCCCC3)[C@@H]4OC(C)=O)[C@@]2(C)C[C@@H]1[N+]1(C)CCCCC1 [Pancuronium bromide],–,–,–,Plate 3 (% conversion): 37.93%
C#CCN(C)Cc1ccccc1 [Pargyline hydrochloride],31.34%,–,–,–
NC[C@@H]1O[C@H](O[C@H]2[C@@H](O)[C@H](O[C@@H]3[C@@H](O)[C@H](N)C[C@H](N)[C@H]3O[C@H]3O[C@H](CO)[C@@H](O)[C@H](O)[C@H]3N)O[C@@H]2CO)[C@H](N)[C@@H](O)[C@@H]1O [Paromomycin sulfate],37.25%,–,–,inhibition at 20 µM [4]: -2.28%
N=C(N)c1ccc(OCCCCCOc2ccc(C(=N)N)cc2)cc1 [Pentamidine isethionate],–,–,–,Plate 3 (% conversion) [1]: 37.75%
C[N+]1(CCCCC[N+]2(C)CCCC2)CCCC1.O=C([O-])C(O)C(O)C(=O)O.O=C([O-])C(O)C(O)C(=O)O [Pentolinium di[L(+)-tartrate]],–,–,–,Plate 3 (% conversion) [1]: 9.60%
CCCN1C[C@H](CSC)C[C@@H]2c3cccc4[nH]cc(c34)C[C@H]21 [Pergolide methanesulfonate],40.48%,–,–,inhibition at 20 µM [4]: -11.8%
OCCN1CCN(CCCN2c3ccccc3Sc3ccc(Cl)cc32)CC1 [Perphenazine],–,–,–,Plate 3 (% conversion) [1]: 48.99%
NCC(CP(=O)(O)O)c1ccc(Cl)cc1 (stereo not shown) [Phaclofen],–,–,–,% conversion: 34.58%; % inhibition (20 µM): 5.54%
NC(=Nc1ccccc1)NC(=O)c1nc(Cl)c(N)nc1N [Phenamil methanesulfonate],39.99%,–,–,inhibition at 20 µM [4]: -10.3%
NNCCc1ccccc1 [Phenelzine sulfate],–,–,–,inhibition at 20 µM: -1.74%
CN(C)CCC(c1ccccc1)c1ccccn1 (stereo not shown) [Pheniramine maleate],37.25%,–,–,inhibition at 20 µM [4]: -2.28%
CN1CC[C@@]2(C)c3cc(OC(=O)Nc4ccccc4)ccc3N(C)[C@@H]12 [Phenserine],–,–,–,Plate 2 (% conversion): 38.49%; inhibition at 20 µM (read-out: Plate 2 (% inhibition)): -7.56%
Cc1ccc(N(CC2=NCCN2)c2cccc(O)c2)cc1 [Phentolamine mesylate],38.87%,–,–,inhibition at 20 µM [4]: -7.04%
CCCCC1C(=O)N(c2ccccc2)N(c2ccccc2)C1=O [Phenylbutazone],37.63%,–,–,inhibition at 20 µM [4]: -3.41%
CNC[C@H](O)c1cccc(O)c1 [Phenylephrine hydrochloride],–,–,–,Plate 3 (% conversion) [1]: 35.74%
O=C(CCc1ccc(O)cc1)c1c(O)cc(O)cc1O [Phloretin],29.69%,–,–,–
